From the NIST ThermoML archive (doi:10.1007/s10765-007-0169-z)

Legend:
[1] = xn = mol fraction of the nth substance listed; conditions: Drop volume
[2] = for surface tension liquid-gas: Drop volume; for mass density: 101.33 kPa, Liquid, Pycnometric method

CC(C)(C)Cl [2-chloro-2-methylpropane] + C1CCOC1
[1]
Conditions	surface tension liquid-gas [mN/m]
298.15 K, x2 = 0.0664	19.32
298.15 K, x2 = 0.1332	19.74
298.15 K, x2 = 0.2532	20.51
298.15 K, x2 = 0.3652	21.26
298.15 K, x2 = 0.4851	22.11
298.15 K, x2 = 0.5768	22.81
298.15 K, x2 = 0.6804	23.66
298.15 K, x2 = 0.7747	24.51
298.15 K, x2 = 0.8446	25.2
298.15 K, x2 = 0.9372	26.23
298.15 K, x2 = 0.9656	26.58
313.15 K, x2 = 0.0427	16.98
313.15 K, x2 = 0.1236	17.22
313.15 K, x2 = 0.1853	17.54
313.15 K, x2 = 0.2856	18.22
313.15 K, x2 = 0.3852	18.94
313.15 K, x2 = 0.5033	19.9
313.15 K, x2 = 0.6055	20.75
313.15 K, x2 = 0.6963	21.55
313.15 K, x2 = 0.794	22.48
313.15 K, x2 = 0.89	23.53
313.15 K, x2 = 0.9446	24.25

CC(C)(C)Cl [2-chloro-2-methylpropane] + C1CCOCC1
[1]
Conditions	surface tension liquid-gas [mN/m]
298.15 K, x2 = 0.0332	19.18
298.15 K, x2 = 0.0955	19.68
298.15 K, x2 = 0.2242	20.68
298.15 K, x2 = 0.3219	21.37
298.15 K, x2 = 0.4336	22.17
298.15 K, x2 = 0.5374	22.97
298.15 K, x2 = 0.6269	23.69
298.15 K, x2 = 0.7173	24.48
298.15 K, x2 = 0.8149	25.41
298.15 K, x2 = 0.9089	26.36
298.15 K, x2 = 0.9418	26.71
313.15 K, x2 = 0.0734	17.35
313.15 K, x2 = 0.1038	17.5
313.15 K, x2 = 0.2093	18.14
313.15 K, x2 = 0.3169	18.9
313.15 K, x2 = 0.4363	19.8
313.15 K, x2 = 0.5116	20.41
313.15 K, x2 = 0.612	21.24
313.15 K, x2 = 0.7058	22.05
313.15 K, x2 = 0.8154	23.08
313.15 K, x2 = 0.9006	23.98
313.15 K, x2 = 0.9529	24.66

CCC(C)Cl (configuration not stated) [2-chlorobutane]
[2]
Conditions	mass density [kg/m3]	surface tension liquid-gas [mN/m]
298.15 K	867.37	21.93
313.15 K	–	19.33

CCC(C)Cl (configuration not stated) [2-chlorobutane] + C1CCOC1
[1]
Conditions	surface tension liquid-gas [mN/m]
298.15 K, x2 = 0.0427	21.96
298.15 K, x2 = 0.1259	22.24
298.15 K, x2 = 0.2478	22.71
298.15 K, x2 = 0.3589	23.19
298.15 K, x2 = 0.4628	23.68
298.15 K, x2 = 0.5654	24.19
298.15 K, x2 = 0.6678	24.74
298.15 K, x2 = 0.7513	25.22
298.15 K, x2 = 0.84	25.77
298.15 K, x2 = 0.9208	26.35
298.15 K, x2 = 0.9701	26.76
313.15 K, x2 = 0.0581	19.7
313.15 K, x2 = 0.124	20.12
313.15 K, x2 = 0.2442	20.84
313.15 K, x2 = 0.3595	21.47
313.15 K, x2 = 0.4761	22.05
313.15 K, x2 = 0.573	22.53
313.15 K, x2 = 0.6654	23
313.15 K, x2 = 0.7524	23.45
313.15 K, x2 = 0.836	23.94
313.15 K, x2 = 0.9209	24.49
313.15 K, x2 = 0.9663	24.81

CCC(C)Cl (configuration not stated) [2-chlorobutane] + C1CCOCC1
[1]
Conditions	surface tension liquid-gas [mN/m]
298.15 K, x2 = 0.04	22.05
298.15 K, x2 = 0.1057	22.38
298.15 K, x2 = 0.2133	22.88
298.15 K, x2 = 0.3195	23.39
298.15 K, x2 = 0.4166	23.88
298.15 K, x2 = 0.5188	24.44
298.15 K, x2 = 0.6151	24.99
298.15 K, x2 = 0.7111	25.56
298.15 K, x2 = 0.8098	26.15
298.15 K, x2 = 0.9438	26.95
298.15 K, x2 = 0.9845	27.2
313.15 K, x2 = 0.0355	19.56
313.15 K, x2 = 0.1006	20.01
313.15 K, x2 = 0.2177	20.83
313.15 K, x2 = 0.3192	21.5
313.15 K, x2 = 0.4243	22.14
313.15 K, x2 = 0.5166	22.66
313.15 K, x2 = 0.5931	23.07
313.15 K, x2 = 0.7193	23.76
313.15 K, x2 = 0.8156	24.31
313.15 K, x2 = 0.9057	24.85
313.15 K, x2 = 0.991	25.34

C1CCOC1 [tetrahydrofuran]
[2]
Conditions	mass density [kg/m3]	surface tension liquid-gas [mN/m]
298.15 K	881.95	27.04
313.15 K	–	25.05

C1CCOCC1 [tetrahydropyran]
[2]
Conditions	mass density [kg/m3]	surface tension liquid-gas [mN/m]
298.15 K	878.81	27.29
313.15 K	–	25.39
